In the assay the test system is DIO mice. In words: Chronic GIPA-2 study: insulin tolerance test (ITT) in DIO mice. The assay is classed as in vivo, mouse. Particulars: day 24; insulin 0.5 U/kg ip one hour after daily dose; liraglutide 0.2 mg/kg SC, GIPA-2 10 mg/kg SC; n = 10. As for the experimental part:
For studying the chronic effects of GIPA-2, male C57BL/6JRj mice (n = 40) were fed a HFD (SSNIFF® diet #12492) for 43 weeks. DIO mice were randomized (n = 10 per group) based on baseline blood glucose and body weight. Liraglutide was dissolved in PBS plus 0.1% BSA (Vehicle1) and GIPA-2 in PBS (vehicle 2). Mice received one of the following four treatments daily for 28 days while still maintained on HFD: (1) vehicle 1 (SC) and vehicle 2 (SC); (2) 0.2 mg/kg liraglutide (SC) and vehicle 2; (3) vehicle 1 (SC) and 10 mg/kg GIPA-2 (SC); and (4) 0.2 mg/kg liraglutide (SC) plus 10 mg/kg GIPA-2 (SC). […] Fasted (4 hrs) blood glucose and insulin were measured on study day -4, 10 and 26. […] Blood glucose was measured before their daily dosing and at 0, 15, 30 60, 120, 180 and 240 min after glucose administration. […] Blood glucose was measured before their daily dosing and at 0, 15, 30 60, 120, 180 min after glucose administration. […]
Fig 3 Effects of GIPA-1 and GIPA-2 on oral glucose tolerance and insulin responses in DIO mice. […] Statistical analysis was calculated using two-way ANOVA with Tukey’s post-hoc test and one-way ANOVA with Dunnett’s post-hoc test. *: p< 0.05, **: p < 0.01, ***: p < 0.001, ****: p<0.0001 compared to vehicle.

On to liraglutide, for which the “insulin sensitivity (ITT)” value was “improved insulin sensitivity produced by liraglutide”.

Values taken from article PMC8011784, “Chronic peptide-based GIP receptor inhibition exhibits modest glucose metabolic changes in mice when administered either alone or combined with GLP-1 agonism” (PLoS ONE, 2021).
